Patent US7138361B2, “Herbicidal heterocycles” (E. I. du Pont de Nemours and Company, priority 2000, dated 2006)

Tests used:
Format in all cases: in vivo
[1] = test system: Surinam grass (Brachiaria decumbens); experiment: Test B postemergence; conditions: 13 to 15 days
In short: (§1)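 Pre: seeded pots sprayed, chemical in non-phytotoxic solvent/surfactant mix. Post: plants 2–18 cm, 1–4 leaf, same formulation. Greenhouse 13–15 d; visual % control vs untreated, 0–100 scale.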

[2] = test system: barnyardgrass (Echinochloa crus-galli); experiment: Test B postemergence; conditions: 13 to 15 days
In short: as §1

[3] = test system: blackgrass (Alopecurus myosuroides); experiment: Test B postemergence; conditions: 13 to 15 days
In short: as §1

[4] = test system: cocklebur (Xanthium strumarium); experiment: Test B postemergence; conditions: 13 to 15 days
In short: as §1

corn (Zea mays) [5] = experiment: Test B postemergence; conditions: 13 to 15 days
In short: as §1

[6] = test system: crabgrass (Digitaria sanguinalis); experiment: Test B postemergence; conditions: 13 to 15 days
In short: as §1

[7] = test system: giant foxtail (Setaria faberii); experiment: Test B postemergence; conditions: 13 to 15 days
In short: as §1

[8] = test system: lambsquarters (Chenopodium album); experiment: Test B postemergence; conditions: 13 to 15 days
In short: as §1

[9] = test system: morning glory (Ipomoea hederacea); experiment: Test B postemergence; conditions: 13 to 15 days
In short: as §1

[10] = test system: pigweed (Amaranthus retroflexus); experiment: Test B postemergence; conditions: 13 to 15 days
In short: as §1

[11] = test system: velvetleaf (Abutilon theophrasti); experiment: Test B postemergence; conditions: 13 to 15 days
In short: as §1

[12] = test system: wheat (Triticum aestivum); experiment: Test B postemergence; conditions: 13 to 15 days
In short: as §1

wild oat (Avena fatua) = experiment: Test B postemergence; conditions: 13 to 15 days
In short: as §1

[13] = test system: Surinam grass (Brachiaria decumbens); experiment: Test B preemergence
In short: as §1

[14] = test system: barnyardgrass (Echinochloa crus-galli); experiment: Test B preemergence
In short: as §1

[15] = test system: cocklebur (Xanthium strumarium); experiment: Test B preemergence
In short: as §1

corn (Zea mays) [16] = experiment: Test B preemergence
In short: as §1

[17] = test system: crabgrass (Digitaria sanguinalis); experiment: Test B preemergence
In short: as §1

[18] = test system: giant foxtail (Setaria faberii); experiment: Test B preemergence
In short: as §1

[19] = test system: lambsquarters (Chenopodium album); experiment: Test B preemergence
In short: as §1

[20] = test system: morning glory (Ipomoea hederacea); experiment: Test B preemergence
In short: as §1

[21] = test system: pigweed (Amaranthus retroflexus); experiment: Test B preemergence
In short: as §1

rice (Oryza saliva) [22] = experiment: Test B preemergence
In short: as §1

[23] = test system: velvetleaf (Abutilon theophrasti); experiment: Test B preemergence
In short: as §1

[24] = test system: barnyardgrass (Echinochloa crus-galli); experiment: Test B flooded paddy test; conditions: Rate 1000 g/ha, scale of 0 to 100 where 0 is no effect and 100 is complete control, visually evaluated after 13 to 15 days
In short: (§2)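 2-leaf plants, flooded paddy; greenhouse 13–15 d post-treatment; visual rating vs controls, 0–100 scale (0 = no effect, 100 = complete control); dash = no result.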

[25] = test system: duck salad (Heteranthera limosa); experiment: Test B flooded paddy test; conditions: Rate 1000 g/ha, scale of 0 to 100 where 0 is no effect and 100 is complete control, visually evaluated after 13 to 15 days
In short: as §2

rice (Oryza saliva) [26] = experiment: Test B flooded paddy test; conditions: Rate 1000 g/ha, scale of 0 to 100 where 0 is no effect and 100 is complete control, visually evaluated after 13 to 15 days
In short: as §2

[27] = test system: smallflower flatsedge (Cyperus difformis); experiment: Test B flooded paddy test; conditions: Rate 1000 g/ha, scale of 0 to 100 where 0 is no effect and 100 is complete control, visually evaluated after 13 to 15 days
In short: as §2

[28] = test system: barnyardgrass (Echinochloa crus-galli); experiment: Test C flooded paddy test; conditions: for Barnyardgrass plant response rating: Flooded Paddy, scale 0 to 100, 0 no effect, 100 complete control; for Plant response rating, Barnyardgrass: flooded paddy test, scale 0 to 100 (0 no effect, 100 complete control)
In short: (§3)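 Visual injury score, 0 (no effect) to 100 (complete control), relative to controls. Paddy plants treated at 2-leaf stage; greenhouse hold 12–14 d before rating.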

[29] = test system: duck salad (Heteranthera limosa); experiment: Test C flooded paddy test; conditions: for Ducksalad plant response rating: Flooded Paddy, scale 0 to 100, 0 no effect, 100 complete control; for Plant response rating, Ducksalad: flooded paddy test, scale 0 to 100 (0 no effect, 100 complete control)
In short: as §3

rice (Oryza saliva) [30] = experiment: Test C flooded paddy test; conditions: for Rice plant response rating: Flooded Paddy, scale 0 to 100, 0 no effect, 100 complete control; for Plant response rating, Rice: flooded paddy test, scale 0 to 100 (0 no effect, 100 complete control)
In short: as §3

[31] = test system: smallflower flatsedge (Cyperus difformis); experiment: Test C flooded paddy test; conditions: for Flatsedge plant response rating: Flooded Paddy, scale 0 to 100, 0 no effect, 100 complete control; for Plant response rating, Flatsedge: flooded paddy test, scale 0 to 100 (0 no effect, 100 complete control)
In short: as §3

[32] = Rate 125 g/ha, scale 0 (no effect) to 100 (complete control)
[33] = Rate 500 g/ha, scale 0 to 100, 0 is no effect, 100 is complete control
[34] = Preemergence, Rate 500 g/ha, scale 0 to 100, 0 no effect, 100 complete control
[35] = preemergence, Rate 125 g/ha, scale of 0 to 100 where 0 is no effect and 100 is complete control, 13 to 15 days

Compound: CCC(C)Oc1ccn(C2CCN(c3cccc(C(F)(F)F)c3)C2=O)n1 (stereo not drawn) [Compound 58]
- Plant response rating, Surinam grass [1, 32]: 0
- Plant response rating, Surinam grass [1, 33]: 0
- Plant response rating, Barnyardgrass [2, 32]: 0
- Plant response rating, Barnyardgrass [2, 33]: 0
- Plant response rating, Blackgrass [3, 32]: 0
- Plant response rating, Blackgrass [3, 33]: 0
- Plant response rating, Cocklebur [4, 32]: 0
- Plant response rating, Cocklebur [4, 33]: 0
- Plant response rating, Corn (corn (Zea mays) [5]; [32]): 0
- Plant response rating, Corn (corn (Zea mays) [5]; [33]): 0
- Plant response rating, Crabgrass [6, 32]: 0
- Plant response rating, Crabgrass [6, 33]: 0
- Plant response rating, Foxtail, Giant [7, 32]: 0
- Plant response rating, Foxtail, Giant [7, 33]: 0
- Plant response rating, Lambsquarters [8, 32]: 0
- Plant response rating, Lambsquarters [8, 33]: 0
- Plant response rating, Morningglory [9, 32]: 0
- Plant response rating, Morningglory [9, 33]: 0
- Plant response rating, Pigweed [10, 32]: 0
- Plant response rating, Pigweed [10, 33]: 0
- Plant response rating, Velvetleaf [11, 32]: 0
- Plant response rating, Velvetleaf [11, 33]: 0
- Plant response rating, Wheat [12, 32]: 0
- Plant response rating, Wheat [12, 33]: 0
- Plant response rating, Wild Oat (wild oat (Avena fatua); [32]): 0
- Plant response rating, Wild Oat (wild oat (Avena fatua); [33]): 0
- Plant response rating, Surinam grass [13, 34]: 0
- Plant response rating, Surinam grass [13, 35]: 0
- Plant response rating, Barnyardgrass [14, 34]: 70
- Plant response rating, Barnyardgrass [14, 35]: 0
- Plant response rating, Cocklebur [15, 34]: 0
- Plant response rating, Cocklebur [15, 35]: 0
- Plant response rating, Corn (corn (Zea mays) [16]; [34]): 0
- Plant response rating, Corn (corn (Zea mays) [16]; [35]): 0
- Plant response rating, Crabgrass [17, 34]: 80
- Plant response rating, Crabgrass [17, 35]: 0
- Plant response rating, Foxtail, Giant [18, 34]: 70
- Plant response rating, Foxtail, Giant [18, 35]: 0
- Plant response rating, Lambsquarters [19, 34]: 0
- Plant response rating, Lambsquarters [19, 35]: 0
- Plant response rating, Morningglory [20, 34]: 0
- Plant response rating, Morningglory [20, 35]: 0
- Plant response rating, Pigweed [21, 34]: 0
- Plant response rating, Pigweed [21, 35]: 0
- Plant response rating, Rice (rice (Oryza saliva) [22]; [34]): 0
- Plant response rating, Rice (rice (Oryza saliva) [22]; [35]): 0
- Plant response rating, Velvetleaf [23, 34]: 0
- Plant response rating, Barnyardgrass [24]: 90
- Plant response rating, Ducksalad [25]: 70
- Plant response rating, Rice (rice (Oryza saliva) [26]): 20
- Plant response rating, Flatsedge [27]: 80
- Barnyardgrass plant response rating ([28]; Rate 250 g/ha): 0
- Barnyardgrass plant response rating ([28]; Rate 500 g/ha): 20
- Plant response rating, Barnyardgrass ([28]; Rate 62 g/ha): 0
- Plant response rating, Barnyardgrass ([28]; Rate 125 g/ha): 0
- Ducksalad plant response rating ([29]; Rate 250 g/ha): 0
- Ducksalad plant response rating ([29]; Rate 500 g/ha): 0
- Plant response rating, Ducksalad ([29]; Rate 62 g/ha): 0
- Plant response rating, Ducksalad ([29]; Rate 125 g/ha): 0
- Rice plant response rating (rice (Oryza saliva) [30]; Rate 250 g/ha): 0
- Rice plant response rating (rice (Oryza saliva) [30]; Rate 500 g/ha): 0
- Plant response rating, Rice (rice (Oryza saliva) [30]; Rate 62 g/ha): 0
- Plant response rating, Rice (rice (Oryza saliva) [30]; Rate 125 g/ha): 0
- Flatsedge plant response rating ([31]; Rate 250 g/ha): 0
- Flatsedge plant response rating ([31]; Rate 500 g/ha): 30
- Plant response rating, Flatsedge ([31]; Rate 62 g/ha): 0
- Plant response rating, Flatsedge ([31]; Rate 125 g/ha): 0

Compound: CC(C)Oc1ccn(C2CCN(c3cccc(C(F)(F)F)c3)C2=O)n1 (stereo not drawn) [Compound 59]
- Plant response rating, Surinam grass [1, 32]: 0
- Plant response rating, Surinam grass [1, 33]: 0
- Plant response rating, Barnyardgrass [2, 32]: 0
- Plant response rating, Barnyardgrass [2, 33]: 0
- Plant response rating, Blackgrass [3, 32]: 0
- Plant response rating, Blackgrass [3, 33]: 0
- Plant response rating, Cocklebur [4, 32]: 0
- Plant response rating, Cocklebur [4, 33]: 0
- Plant response rating, Corn (corn (Zea mays) [5]; [32]): 0
- Plant response rating, Corn (corn (Zea mays) [5]; [33]): 0
- Plant response rating, Crabgrass [6, 32]: 0
- Plant response rating, Crabgrass [6, 33]: 0
- Plant response rating, Foxtail, Giant [7, 32]: 0
- Plant response rating, Foxtail, Giant [7, 33]: 0
- Plant response rating, Lambsquarters [8, 32]: 0
- Plant response rating, Lambsquarters [8, 33]: 0
- Plant response rating, Morningglory [9, 32]: 0
- Plant response rating, Morningglory [9, 33]: 0
- Plant response rating, Pigweed [10, 32]: 0
- Plant response rating, Pigweed [10, 33]: 0
- Plant response rating, Velvetleaf [11, 32]: 0
- Plant response rating, Velvetleaf [11, 33]: 0
- Plant response rating, Wheat [12, 32]: 0
- Plant response rating, Wheat [12, 33]: 0
- Plant response rating, Wild Oat (wild oat (Avena fatua); [32]): 0
- Plant response rating, Wild Oat (wild oat (Avena fatua); [33]): 0
- Plant response rating, Surinam grass [13, 34]: 80
- Plant response rating, Surinam grass [13, 35]: 60
- Plant response rating, Barnyardgrass [14, 34]: 90
- Plant response rating, Barnyardgrass [14, 35]: 0
- Plant response rating, Cocklebur [15, 34]: 0
- Plant response rating, Cocklebur [15, 35]: 0
- Plant response rating, Corn (corn (Zea mays) [16]; [34]): 0
- Plant response rating, Corn (corn (Zea mays) [16]; [35]): 0
- Plant response rating, Crabgrass [17, 34]: 90
- Plant response rating, Crabgrass [17, 35]: 20
- Plant response rating, Foxtail, Giant [18, 34]: 70
- Plant response rating, Foxtail, Giant [18, 35]: 0
- Plant response rating, Lambsquarters [19, 34]: 100
- Plant response rating, Lambsquarters [19, 35]: 0
- Plant response rating, Morningglory [20, 34]: 0
- Plant response rating, Morningglory [20, 35]: 0
- Plant response rating, Pigweed [21, 34]: 0
- Plant response rating, Pigweed [21, 35]: 0
- Plant response rating, Rice (rice (Oryza saliva) [22]; [34]): 50
- Plant response rating, Rice (rice (Oryza saliva) [22]; [35]): 0
- Plant response rating, Velvetleaf [23, 34]: 0
- Plant response rating, Velvetleaf [23, 35]: 0
- Plant response rating, Barnyardgrass [24]: 100
- Plant response rating, Ducksalad [25]: 70
- Plant response rating, Rice (rice (Oryza saliva) [26]): 20
- Plant response rating, Flatsedge [27]: 90
- Barnyardgrass plant response rating ([28]; Rate 250 g/ha): 0
- Barnyardgrass plant response rating ([28]; Rate 500 g/ha): 30
- Plant response rating, Barnyardgrass ([28]; Rate 62 g/ha): 0
- Plant response rating, Barnyardgrass ([28]; Rate 125 g/ha): 0
- Ducksalad plant response rating ([29]; Rate 250 g/ha): 0
- Ducksalad plant response rating ([29]; Rate 500 g/ha): 0
- Plant response rating, Ducksalad ([29]; Rate 62 g/ha): 0
- Plant response rating, Ducksalad ([29]; Rate 125 g/ha): 0
- Rice plant response rating (rice (Oryza saliva) [30]; Rate 250 g/ha): 0
- Rice plant response rating (rice (Oryza saliva) [30]; Rate 500 g/ha): 20
- Plant response rating, Rice (rice (Oryza saliva) [30]; Rate 62 g/ha): 0
- Plant response rating, Rice (rice (Oryza saliva) [30]; Rate 125 g/ha): 0
- Flatsedge plant response rating ([31]; Rate 250 g/ha): 0
- Flatsedge plant response rating ([31]; Rate 500 g/ha): 30
- Plant response rating, Flatsedge ([31]; Rate 62 g/ha): 0
- Plant response rating, Flatsedge ([31]; Rate 125 g/ha): 0
